Tests used:
OCTs = experiment: Inhibition of [14C]choline uptake in MCF-7 cells (competitive inhibition assay); format: cell-based, human; details: mean ± SD (n = 3)
Description: The following day, after removal of the culture medium, the cells were carefully washed with prewarmed HBSS (Hanks’ balanced salt solution) containing 125 mM NaCl, 4.8 mM KCl, 1.2 mM MgSO4, 1.2 mM KH2PO4, 1.3 mM CaCl2, 5.6 mM glucose and 25 mM HEPES (pH 7.4). […] Then, the cells were washed three times with ice-cold HBSS (500 μL) and were lysed with 250 μL of 0.1-M NaOH in the ice bath, and the lysate was mixed with 1.0 mL of an emulsifier safe cocktail (PerkinElmer, Waltham, MA, USA). The radioactivity was measured by liquid scintillation counting (MicroBeta^2 counter, PerkinElmer, Waltham, MA, USA). The studies were carried out with the use of at least three replicates from the same cell passage.

MCF-7 cells [1] = experiment: Uptake in the presence of OCT and MATE inhibitors, MCF-7 cells; format: in vitro ADME, human; details: for uptake in the presence of cimetidine, MCF-7 / uptake in the presence of disopyramide, MCF-7 / uptake in the presence of lopinavir, MCF-7 / uptake in the presence of methenamine, MCF-7: compound and inhibitor 400 and 800 µmol/L, 10 min, 37 °C; for interactions with OCT, PMAT and MATE1 transporters, MCF-7: summary from uptake with inhibitors
Description: (§1) The uptake of sulfonamide derivatives of metformin (1–9) in MCF-7 and MDA-MB-231 cells was studied also in the presence of disopyramide, cimetidine (OCT1 and 3 inhibitors), lopinavir (OCT and PMAT inhibitor) and methenamine (MATE and OCT2 inhibitors). The cells were incubated (37 °C, 10 min) with compounds 1–9 at concentrations of 400 and 800 μmol/L and inhibitors (disopyramide, cimetidine, lopinavir or methenamine) in 250 μL of prewarmed HBSS buffer. The protocol of determination of the compound concentration was as described above.

MDA-MB-231 cells [2] = experiment: Uptake in the presence of OCT and MATE inhibitors, MDA-MB-231 cells; format: in vitro ADME, human; details: for interactions with OCT, PMAT and MATE1 transporters, MDA-MB-231: summary from uptake with inhibitors
Description: as §1

MDA-MB-231 cells [3] = experiment: Annexin V-FITC/PI apoptosis assay, MDA-MB-231; format: cell-based, human; details: for Early Apoptotic [E+−] / Late Apoptotic [E++] / Living Cells [E−−] / Necrotic Cells [E−+] / Single Cells in Gate B: MDA-MB-231, 24 h
Description: MCF-7 and MDA-MB-231 cells were seeded at a density of 5 × 10^4 per well on 24-well plates and incubated for 24 h (37 °C, 5% CO2) to obtain 70 % confluency. Then, the medium (control) or medium with the tested compounds in a volume of 250 μL was added and incubated for another 24 h. The cells were harvested using accutase (Sigma Aldrich, St. Louis, MO, USA) as a detaching reagent, collected to Eppendorf tubes and centrifuged (1100 rpm, 5 min). Afterwards, the cells were resuspended in 1 mL of a cold cell-staining buffer (Biolegend, London UK) and washed twice with a cell-staining buffer. The final step included suspension of the cell pellets in 100 μL of a binding buffer, staining with propidine iodide (PI; 10 μL) and FITC-annexin solutions (AV; 5 μL) (FITC Annexin V Apoptosis Detection Kit with PI (Biolegend, UK)). The samples were incubated for 20 min at room temperature in the dark, followed by an analysis conducted on a cytometer (CytoFlex, blue laser, 480 nm, Beckman-Coulter, Indianapolis, IN, USA). The results were analyzed using Kaluza 2.1 (Beckman-Coulter) software.
Annexin V (−) and PI (−) cells were considered living cells, annexin V (+) and PI (−) as early-apoptotic cells, annexin V (+) and PI (+) as late-apoptotic cells and annexin V (−) and PI (+) as necrotic cells.
The experiments were conducted in triplicates (n = 3). The coefficients of variation for the assay were determined (CV = 0.97–13.62%, depending on the calculated cell population).

MCF-7 cells [4] = experiment: Cell cycle analysis (PI, flow cytometry), MCF-7; format: cell-based, human; details: MCF-7, 24 h
Description: (§2) MCF-7 and MDA-MB-231 cells were seeded in 6-well plates at a density of 2 × 10^5 cells per well and cultured for 24 h under standard conditions (with 2 mL of the medium). Next, cells were exposed to the tested compounds at concentrations corresponding to IC50. After 24 h of treatment, control and treated cells were then collected (washed with cold PBS and treated with accutase), transferred to Eppendorf tubes and centrifuged (1100 rpm, 5 min, 5 °C). The supernatant was discarded, cold PBS was added (1 mL) and the cells were centrifuged (1200 rpm, 5 min). The solution was removed, and the cells were fixed in cold 70% ethanol at 4 °C. Prior to the analysis, the cells were centrifuged (3600 rpm, 5 min) and washed twice with PBS. The solution was discarded, the pellets were suspended in 200 µL of PBS and incubated with ribonuclease at 37 °C (25 µL, final concentration in a sample was 100 µg/mL) for 30 min and stained with propidine iodide (12.5 µL, final concentration in a sample was 50 µg/mL) in darkness at room temperature for additional 20 min. The final volume of the sample was 250 µL.
(§3) DNA content and the number of cells in individual cell cycle phases was measured by flow cytometry (CytoFlex, blue laser, 480 nm, Beckman-Coulter, Indianapolis, IN, USA). Cells (20,000) were analyzed from each sample. The percentage of cells in each cell cycle phase was calculated from live cells that were expressed as 100%. The data are presented as the mean ± SD of three independent experiments. The coefficients of variation for the assay were established (CV = 0.37–11.78%, depending on the cell population).

MDA-MB-231 cells [5] = experiment: Cell cycle analysis (PI, flow cytometry), MDA-MB-231; format: cell-based, human; details: MDA-MB-231, 24 h, 2600 µmol/L (IC50 value)
Description: as §2, §3

[6] = compound and inhibitor 400 and 800 µmol/L, 10 min, 37 °C
[7] = Comp. 1 and 4 1500 μmol/L, Comp. 7 1300 μmol/L (½ × IC50)
[8] = Comp. 1 and 4 3000 μmol/L, Comp. 7 2600 (IC50)
[9] = IC50 (Comp. 1 13, Comp. 4 430, Comp. 7 55 μmol/L)
[10] = MDA-MB-231, 3000 uM, representative cytogram Figure 7B

| SMILES | IC50 (OCTs) | uptake in the presence of cimetidine, MCF-7 (MCF-7 cells [1]) | uptake in the presence of disopyramide, MCF-7 (MCF-7 cells [1]) | uptake in the presence of lopinavir, MCF-7 (MCF-7 cells [1]) | interactions with OCT, PMAT and MATE1 transporters, MCF-7 (MCF-7 cells [1]) | interactions with OCT, PMAT and MATE1 transporters, MDA-MB-231 (MDA-MB-231 cells [2]) | Early Apoptotic [E+−] (MDA-MB-231 cells [3]; [7]) | Late Apoptotic [E++] (MDA-MB-231 cells [3]; [7]) | Living Cells [E−−] (MDA-MB-231 cells [3]; [7]) | Necrotic Cells [E−+] (MDA-MB-231 cells [3]; [7]) | Single Cells in Gate B (MDA-MB-231 cells [3]; [7]) | Early Apoptotic [E+−] (MDA-MB-231 cells [3]; [8]) | Late Apoptotic [E++] (MDA-MB-231 cells [3]; [8]) | Living Cells [E−−] (MDA-MB-231 cells [3]; [8]) | Necrotic Cells [E−+] (MDA-MB-231 cells [3]; [8]) | Single Cells in Gate B (MDA-MB-231 cells [3]; [8]) | G0/G1 (MCF-7 cells [4]; [9]) | G2/M (MCF-7 cells [4]; [9]) | S (MCF-7 cells [4]; [9]) | Sub G0/G1 (MCF-7 cells [4]; [9]) | other results |
| --- | --- | --- | --- | --- | --- | --- | --- | --- | --- | --- | --- | --- | --- | --- | --- | --- | --- | --- | --- | --- | --- |
| CN(C)C(=N)N=C(N)NS(=O)(=O)c1ccccc1Cl [Compound 1] | 1050 ± 14.2 µM | significantly decreased | Lower uptake, however, not statistically significant | significantly higher uptake | OCT1, OCT3, PMAT, MATE1 | OCT1, PMAT | 7.66 ± 0.06 % | 8.06 ± 0.81 % | 81.55 ± 1.65% | 2.74 ± 0.98% | 94.34 ± 0.26% | 9.96 ± 0.92 % | 31.41 ± 3.46 % | 53.83% | 4.81 ± 0.60% | 91.85 ± 0.37 % | 38.76 ± 0.80% | 17.54 ± 0.48 % | 35.45 ± 0.23 % | 8.28 ± 1.04 % | uptake in the presence of methenamine, MCF-7 (MCF-7 cells [1]): significantly decreased; uptake in the presence of cimetidine, MDA-MB-231 (MDA-MB-231 cells [2]; [6]): No statistically significant changes; uptake in the presence of disopyramide, MDA-MB-231 (MDA-MB-231 cells [2]; [6]): significantly higher uptake; uptake in the presence of lopinavir, MDA-MB-231 (MDA-MB-231 cells [2]; [6]): significantly higher uptake; uptake in the presence of methenamine, MDA-MB-231 (MDA-MB-231 cells [2]; [6]): No statistically significant changes; Living Cells [E−−] (MDA-MB-231 cells [3]; Comp. 1 and 4 1500 μmol/L, Comp. 7 1300 μmol/L (½ × IC50), listed as Comp. 1): 81.55 ± 1.65 %; Living Cells [E−−] (MDA-MB-231 cells [3]; Comp. 1 and 4 3000 μmol/L, Comp. 7 2600 (IC50), listed as Comp. 1): 53.83 ± 3.87 %; G0/G1 (MCF-7 cells [4]; IC50 (Comp. 1 13, Comp. 4 430, Comp. 7 55 µmol/L), listed as Comp. 1): 38.76 ± 0.80 % |
| CN(C)C(=N)N=C(N)NS(=O)(=O)c1ccccc1Br [Compound 4] | 1670 ± 8.5 µM | did not change | increased the uptake | increased the uptake | OCT1, PMAT | OCT1, OCT3, PMAT | 7.74 ± 0.91 % | 13.30 ± 0.66 % | 72.64 ± 1.76 % | 6.31 ± 0.26 % | 93.37 ± 0.34% | 6.85 ± 0.34 % | 36.51 ± 3.36 % | 49.49 ± 2.31 % | 7.15 ± 1.45 % | 90.59 ± 0.70 % | 73.69 ± 0.26 % | 8.21 ± 0.03 % | 15.16 ± 0.54 % | 2.98 ± 0.40% | uptake in the presence of methenamine, MCF-7 (MCF-7 cells [1]): did not change; uptake in the presence of cimetidine, MDA-MB-231 (MDA-MB-231 cells [2]; [6]): significantly decreased; uptake in the presence of disopyramide, MDA-MB-231 (MDA-MB-231 cells [2]; [6]): significantly decreased; uptake in the presence of lopinavir, MDA-MB-231 (MDA-MB-231 cells [2]; [6]): increased; Early apoptosis (representative cytogram) (MDA-MB-231 cells [3]; [10]): 6.91%; Late apoptosis (representative cytogram) (MDA-MB-231 cells [3]; [10]): 34.48%; Live cells (representative cytogram) (MDA-MB-231 cells [3]; [10]): 51.21%; Necrotic cells (representative cytogram) (MDA-MB-231 cells [3]; [10]): 7.40% |
| CN(C)C(=N)N=C(N)NS(=O)(=O)c1ccccc1F [Compound 7] | 6354 ± 12.9 µM | decrease in uptake | – | increase in its uptake | OCT3, PMAT | OCT1, OCT3 | 8.78 ± 0.63 % | 18.89 ± 2.67 % | 68.26 ± 3.51 % | 4.06 ± 1.75% | 93.75 ± 0.41% | 6.39 ± 0.16 % | 35.54 ± 2.67 % | 50.40 ± 4.95 % | 7.66 ± 2.93 % | 91.60 ± 0.48 % | 56.48 ± 3.34 % | 15.43 ± 0.93 % | 10.34 ± 0.74 % | 17.85 ± 2.08 % | G0/G1 (MDA-MB-231 cells [5]): 64.31 ± 1.13 %; G2/M (MDA-MB-231 cells [5]): 12.24 ± 0.10 %; S (MDA-MB-231 cells [5]): 19.99 ± 0.97 %; Sub G0/G1 (MDA-MB-231 cells [5]): 3.41 ± 0.08 % |
